In ChEMBL document CHEMBL5126661, “Experimental and Computational Studies on the Biotransformation of Pseudopyronines with Human Cytochrome P450 CYP4F2” (2022):
≈ marks a conversion by molar mass, not a printed value.

Tests used:
Format in all cases: functional
[1] = tested on: Staphylococcus aureus; assay: Antibacterial activity against Staphylococcus aureus ATCC12600 assessed as inhibition of bacterial growth by broth microdilution method
[2] = tested on: Staphylococcus epidermidis; assay: Antibacterial activity against Staphylococcus epidermidis ATCC14990 assessed as inhibition of bacterial growth by broth microdilution method
[3] = tested on: Streptococcus mutans; assay: Antibacterial activity against Streptococcus mutans ATCC25175 assessed as inhibition of bacterial growth by broth microdilution method
[4] = tested on: Moraxella catarrhalis; assay: Antibacterial activity against Moraxella catarrhalis ATCC25238 assessed as inhibition of bacterial growth by broth microdilution method

- MIC [1]: 2.1 µg/mL (≈ 7.13 µM)
- MIC [2]: 2.1 µg/mL (≈ 7.13 µM)
- MIC [3]: 2.1 µg/mL (≈ 7.13 µM)
- MIC [4]: 2.1 µg/mL (≈ 7.13 µM)
SMILES: CCCCCCCc1cc(O)c(CCCCCC)c(=O)o1 [PSEUDOPYRONINES B]
